# Values joined by “and” are separate entries in the source; they are usually repeats but may differ in a detail not shown here. Equal entries are not always repeated. Where two headings read alike, the source gives them in different places.
# Tests used:
# Assay type in all cases: biochemical
# [1] = system: T1, UGT enzymes of human liver microsomes; assay: Inhibition of 7-HFC glucuronidation in human liver microsomes; conditions: 7-HFC 50 μM, human liver microsomes 100 μg/ml, 15 min
# T1 construct: percentage of control metabolism, 7-HFC glucuronidation; percentage of control metabolism, 7-HFC glucuronidation
# [2] = system: UGT enzymes of human liver microsomes; assay: Inhibition of raloxifene glucuronidation (G1, G2) in human liver microsomes
# Text: Compounds were eluted using a binary solvent gradient system. […] Solvent B was methanol. […] Detection was at 280 nm.
# [3] = target: T2, UGT enzymes of human liver microsomes (Homo sapiens, UniProt P16662); assay: Inhibition of zidovudine glucuronidation in human liver microsomes; conditions: liver lot 062101
# T2 construct: residual metabolism (percentage of control), zidovudine glucuronidation; other: liver lot 062101; residual metabolism (percentage of control), zidovudine glucuronidation; residual metabolism (percentage of control)
# T2 sequence (P16662 1-529): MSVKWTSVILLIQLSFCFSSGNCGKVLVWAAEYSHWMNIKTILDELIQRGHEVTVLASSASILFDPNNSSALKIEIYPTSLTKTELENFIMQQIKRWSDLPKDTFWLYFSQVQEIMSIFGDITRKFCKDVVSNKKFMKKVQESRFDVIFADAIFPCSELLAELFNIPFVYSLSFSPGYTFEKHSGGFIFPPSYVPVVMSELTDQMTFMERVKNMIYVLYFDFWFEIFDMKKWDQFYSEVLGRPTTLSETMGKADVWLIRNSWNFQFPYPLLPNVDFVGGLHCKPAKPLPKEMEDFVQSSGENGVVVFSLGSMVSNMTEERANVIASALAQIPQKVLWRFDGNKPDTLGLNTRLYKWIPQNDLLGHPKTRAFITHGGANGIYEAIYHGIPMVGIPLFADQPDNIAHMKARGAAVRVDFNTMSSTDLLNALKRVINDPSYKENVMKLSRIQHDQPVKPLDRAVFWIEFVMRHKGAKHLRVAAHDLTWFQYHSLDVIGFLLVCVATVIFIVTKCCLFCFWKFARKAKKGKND
# Method: Compounds were eluted using a binary solvent gradient system where solvent A was dilute phosphoric acid (pH 3) and solvent B was acetonitrile.
# Standardized incubations utilized 500 μM zidovudine substrate, 1 mg/ml microsomal protein, 5 mM UDPGA and a 30 min incubation time. […] Int.
# [4] = G1, inhibitor 500 μM, raloxifene 50 μM, human liver microsomes 250 μg/ml, 15 min
# [5] = G2, inhibitor 500 μM, raloxifene 50 μM, human liver microsomes 250 μg/ml, 15 min
smiles,measurement,setting,value
CC(C)[C@@H]1CC[C@@H](C)C[C@H]1O[C@@H]1O[C@H](C(=O)O)[C@@H](O)[C@H](O)[C@H]1O [Menthol glucuronide],"% of control metabolism (SD, n = 3), 7-HFC glucuronidation",[1]; inhibitor 500 μM,94 (4) %
same,"% of control metabolism (SD, n = 3), raloxifene glucuronide G1",[2],91 (2) %
same,"% of control metabolism (SD, n = 3), raloxifene glucuronide G2",[2],84 (1) %
CC(=O)OC1CC(C)CCC1C(C)C (stereo not shown) [Menthyl acetate],"residual metabolism (percentage of control), zidovudine glucuronidation",[3]; inhibitor 200 μM,64 (2) %
same,"residual metabolism (percentage of control), zidovudine glucuronidation",[3]; inhibitor 500 μM,35 (1) %
same,"residual metabolism (percentage of control), zidovudine glucuronidation",[3]; inhibitor 1000 μM,20 (1) %
COc1ccc2cc(CCC(C)=O)ccc2c1 [Nabumetone],"% of control metabolism (SD, n = 3), 7-HFC glucuronidation",[1]; inhibitor 500 μM,81 (3) %
same,"% of control metabolism (SD, n = 3), raloxifene glucuronide G1",[2]; [4],75 (2) %
same,"% of control metabolism (SD, n = 3), raloxifene glucuronide G2",[2]; [5],80 (2) %
COc1ccc2cc([C@H](C)C(=O)O)ccc2c1 [Naproxen Free Acid],"% of control metabolism (SD, n = 3), 7-HFC glucuronidation",[1]; inhibitor 500 μM,83 (1) %
same,"% of control metabolism (SD, n = 3), raloxifene glucuronide G1",[2],81 (3) %
same,"% of control metabolism (SD, n = 3), raloxifene glucuronide G2",[2],78 (2) %
COc1ccc2cc([C@H](C)C(=O)[O-])ccc2c1.[Na+] [Naproxen Na salt],"% of control metabolism (SD, n = 3), 7-HFC glucuronidation",[1]; inhibitor 500 μM,82 (1) %
CC(C)=CCC/C(C)=C\CO [Nerol],"% of control metabolism (SD, n = 3), 7-HFC glucuronidation",[1]; inhibitor 500 μM,71 (2) %
CCCCCCCCCCCCCCCC(=O)O [Palmitic acid],"% of control metabolism (SD, n = 3), 7-HFC glucuronidation",[1]; inhibitor 500 μM,104 (2) %
CCCCCCCCCCCCCCCC(=O)OC/C=C(C)/C=C/C=C(C)/C=C/C1=C(C)CCCC1(C)C [Retinol palmitate],"% of control metabolism (SD, n = 3), 7-HFC glucuronidation",[1]; inhibitor 100 μM,90 (3) %
same,"% of control metabolism (SD, n = 3), 7-HFC glucuronidation",[1]; inhibitor 200 μM,82 (1) %
same,"% of control metabolism (SD, n = 3), 7-HFC glucuronidation",[1]; inhibitor 500 μM,81 (4) %
CC(=O)OC/C=C(C)/C=C/C=C(C)/C=C/C1=C(C)CCCC1(C)C [Retinyl acetate],"% of control metabolism (SD, n = 3), 7-HFC glucuronidation",[1]; inhibitor 100 μM,72 (1) %
same,"% of control metabolism (SD, n = 3), 7-HFC glucuronidation",[1]; inhibitor 200 μM,60 (3) %
same,"% of control metabolism (SD, n = 3), 7-HFC glucuronidation",[1]; inhibitor 500 μM,48 (1) %
CC1=C(CC(=O)O)c2cc(F)ccc2/C1=C\c1ccc([S+](C)[O-])cc1 (stereo not shown) [Sulindac],"% of control metabolism (SD, n = 3), 7-HFC glucuronidation",[1]; inhibitor 500 μM,85 (0) %
same,"% of control metabolism (SD, n = 3), raloxifene glucuronide G1","[2]; G1, inhibitor 100 μM, raloxifene 50 μM, human liver microsomes 250 μg/ml, 15 min",76 (6) %
same,"% of control metabolism (SD, n = 3), raloxifene glucuronide G1",[2]; [4],25 (3) %
same,"% of control metabolism (SD, n = 3), raloxifene glucuronide G2","[2]; G2, inhibitor 100 μM, raloxifene 50 μM, human liver microsomes 250 μg/ml, 15 min",79 (4) %
same,"% of control metabolism (SD, n = 3), raloxifene glucuronide G2",[2]; [5],44 (2) %
C=CC[C@@H]1/C=C(\C)C[C@H](C)C[C@H](OC)[C@H]2O[C@@](O)(C(=O)C(=O)N3CCCC[C@H]3C(=O)O[C@H](/C(C)=C/[C@@H]3CC[C@@H](O)[C@H](OC)C3)[C@H](C)[C@@H](O)CC1=O)[C@H](C)C[C@@H]2OC [Tacrolimus],"% of control metabolism (SD, n = 3), 7-HFC glucuronidation",[1]; inhibitor 500 μM,126 (4) %
CCCCNC(=O)NS(=O)(=O)c1ccc(C)cc1 [Tolbutamide],"% of control metabolism (SD, n = 3), 7-HFC glucuronidation",[1]; inhibitor 500 μM,100 (0) %
same,"% of control metabolism (SD, n = 3), raloxifene glucuronide G1",[2],98 (7) %
same,"% of control metabolism (SD, n = 3), raloxifene glucuronide G2",[2],91 (2) %
COc1cc(C=O)ccc1O [Vanillin],"residual metabolism (percentage of control), zidovudine glucuronidation",[3]; inhibitor 500 μM,81 (4) %
CC1=CC(=O)c2ccccc2C1=O [Vitamin K3],"% of control metabolism (SD, n = 3), 7-HFC glucuronidation",[1]; inhibitor 500 μM,78 (2) %
"O=[N+]([O-])c1ccc(O)cc1 [p-Nitrophenol, reference compound]","% of control metabolism (SD, n = 3), 7-HFC glucuronidation",[1]; inhibitor 500 μM,62 (1) %
same,"% of control metabolism, raloxifene G1",[2],"37 (0), 42 (2) % and 49 (2), 51 (2) % and 63 (4), 66 (1) %"
same,"% of control metabolism, raloxifene G2",[2],"37 (0), 42 (2) % and 49 (2), 51 (2) % and 63 (4), 66 (1) %"
CCCCCCCCCCCCCCCC(=O)Oc1ccc([N+](=O)[O-])cc1 [p-Nitrophenyl palmitate],"% of control metabolism (SD, n = 3), 7-HFC glucuronidation",[1]; inhibitor 500 μM,96 (1) %
CCCCCCCCCCCCCCCC(=O)Oc1cccc2ccccc12 [α-Naphthyl palmitate],"% of control metabolism (SD, n = 3), 7-HFC glucuronidation",[1]; inhibitor 500 μM,70 (3) %

# Source: patent US20030215462A1, “Use of UGT inhibitors to increase bioavailability” (priority 2001, published 2003)
